Values belong to the compound of their own block, whether it stands above or below them.
Assays:
[1] = test system: adipocytes (3T3-L1) and myotubes (C2C12); assay: Glucose utilization (extracellular acidification), cell type not stated; assay type: cell-based, mouse; settings: compound alone
Procedure: In the absence of a fatty acid source and oxidative metabolism, glycolysis and subsequent lactate production results in extracellular acidification, which was also measured using a Seahorse Bioscience XF24 analyzer. Cells were prepared and equilibrated similar to the methods described above for fatty acid oxidation, with the exclusion of carnitine from the medium. Following instrument equilibration and three baseline measurements, glucose was injected to a final concentration of 10 mM in each well. Measurements were taken as described above utilizing the sensors for extracellular acidification rather than O2 consumption. Insulin (final concentration of 5 nM) was added to some wells as a positive control. Data for each sample were normalized to the pre-glucose injection baseline for that sample and expressed as % change from that baseline. The area under of the curve of extracellular acidification change from baseline for each sample was then calculated and used for subsequent analysis.
In the absence of a fatty acid source and oxidative metabolism, glycolysis and subsequent lactate production results in extracellular acidification, which was also measured using a Seahorse Bioscience XF24 analyzer. […] Data for each sample were normalized to the pre-glucose injection baseline for that sample and expressed as % change from that baseline. […]

[2] = test system: LDL receptor knockout mice; assay: LDL receptor knockout mice on western diet: plasma lipids, atherosclerosis, macrophage infiltration (Example 7); assay type: in vivo, mouse
Text: LDL receptor knockout (LDLRKO) mice were obtained from Jackson Laboratories (Bar Harbor, Me.), and housed in groups under room temperature in a humidity-controlled environment with a regular light and dark cycle. The mice were provided free access to an atherogenic western diet (WD) containing 0.21% cholesterol (by weight) and 40% calories from fat and water for 4 weeks prior to treatment. For treatment, the mice were given (a) the WD diet alone, (b) WD and 24 g of leucine/kg diet, (c) WD and 24 g of leucine/kg diet and 50 mg nicotinic acid/kg diet, (d) WD and 24 g of leucine/kg diet and 250 mg nicotinic acid/kg diet, or (e) WD and 1000 mg nicotinic acid/kg diet; this is approximately equivalent to a low therapeutic dose of nicotinic acid in hypercholesterolemic humans (˜1,500 mg/day). The treatments were administered for eight weeks continuously.
Blood samples of the mice in all groups were obtained from tails of the mice at following four and eight weeks of administration. The serum/plasma levels of triglyceride, total cholesterol and cholesterol esters were measured. Following treatment, food was removed for four hours and the animals were euthanized.
Blood was collected into EDTA-coated tubes to analyze plasma lipid and cholesterol profiles. Plasma total cholesterol (TC, Pointe Scientific, Canton, Mich.), free cholesterol (FC, Wako, Richmond, Va.) and triglyceride (TG, Wako, Richmond, Va.) concentrations were measured using enzymatic assays according to manufacturer's instructions. Cholesterol ester (CE) was calculated as the difference between TC and FC.
To assess atherosclerosis, the circulatory system was perfused following euthanasia with phosphate-buffered saline (PBS) before removing the heart and aorta. The upper one-third of the heart was dissected and embedded in Optimal Cutting Temperature Compound (Sakura Tissue-Tek, Torrance, Calif.), frozen, and stored at −80° C. Blocks were serially cut at 8 μm intervals and stained with hematoxylin and 0.5% Oil Red O (Sigma-Aldrich) to evaluate aortic sinus atherosclerotic intimal area. Atherosclerotic lesion area and Oil Red O positive area were quantified using Image-Pro Plus software (Media Cybernetics, Bethesda, Md.). Whole aorta (from sinotubular junction to iliac bifurcate) was dissected and fixed in 10% formalin, and the adventitia was cleaned. Aortas were opened along the longitudinal axis and pinned onto black silicon elastomer (Rubber-Cal, Santa Ana, Calif.) for the quantification of atherosclerotic lesion area. The percentage of total aortic surface covered with atherosclerotic lesions was quantified by Image-Pro Plus software (Media Cybernetics, Bethesda, Md.) and used to determine the total lesion area.
To assess macrophage infiltration, Sections of aortic sinus were immuno-stained with rat monoclonal antibody against macrophage-specific CD68 (Clone FA11, 1:75, AbD Serotec, Raleigh, N.C.) followed by staining with alkaline phosphatase-conjugated mouse anti-rat (for CD68, 1:50) secondary antibodies (Jackson ImmunoResearch laboratories, West Grove, Pa.). Control slides contain no primary antibody. The CD68-positive areas were analyzed using Image-Pro Plus software (Media Cybernetics, Bethesda, Md.).

[3] = test system: patients pre-diagnosed with hyperlipidemia; assay: Planned study in hyperlipidemic patients: lipids and cutaneous vasodilation (Example 8); assay type: in vivo, human; settings: for triglyceride, LDL, cholesterol and HDL levels compared to day 0: oral twice a day, 60 days
Procedure: Patients that are pre-diagnosed with hyperlipidemia are admitted for the randomized and double blind study. […] The treatments are administered orally twice a day, for 60 days continuously. […] The serum/plasma levels of triglyceride, cholesterol, LDL and HDL are measured. Cutaneous vasodilation is measured by laser-Doppler flowmeter and the discomfort level described by the patients.

Sirt1 = settings: C2C12 myotubes
[4] = test system: LDL receptor knockout (LDLRKO) mice; assay: Planned study in LDL receptor knockout mice with leucine/metformin/nicotinic acid (Example 13); assay type: in vivo, mouse
[5] = test system: patients pre-diagnosed with hyperlipidemia; assay: Planned study in patients: atherosclerotic plaque size by quantitative coronary angiography (Example 9); assay type: in vivo, human; settings: oral twice a day, 3 years; nicotinic acid 50 mg, leucine 550 mg, resveratrol 50 mg
Procedure: Patients that experience acute chest pain and are pre-diagnosed with hyperlipidemia are admitted for the randomized and double blind study. […] The treatments are administered orally twice a day, for 3 years continuously. The size of atherosclerotic plaque is measured at day 0, months 6, 12, 18, 24, 30 and 36 by quantitative coronary angiography.

Caenorhabditis elegans = assay: Lifespan of C. elegans (Example 10); assay type: in vivo; settings: basal conditions; leucine 0.5 mM, nicotinic acid 10 nM
Procedure: Eggs were hatched on a starved plate overnight. […] All treatments were added with the indicated concentrations to E. coli the agar plates. […] The worms were maintained at 20° C. throughout the duration of the study. Worms were transferred to new plates daily to eliminate progeny. […] The study was continued until the last animal was dead. Data were analyzed via Kaplan-Meier survival curves using Prism 6 (GraphPad Software) and statistical significance was determined by the Log-rank (Mantel-Cox) test.

AMPK = settings: 3T3-L1 adipocytes
[6] = test system: LDL receptor knockout (Ldlr−/−) mice; assay: Ldlr−/− mice on atherogenic diet with leucine/metformin/nicotinic acid (Example 15); assay type: in vivo, Mus musculus
C2C12 myotubes [7] = settings: Mooney et al. 2008; cited from earlier work
C2C12 myotubes [8] = assay: Glucose utilization (extracellular acidification response to glucose) in myotubes; assay type: cell-based, mouse
3T3-L1 adipocytes = assay: Fatty acid oxidation (palmitate-induced O2 consumption, Seahorse XF24) in adipocytes; assay type: cell-based, mouse; settings: 24-hour Met-Leu treatment
[9] = nicotinic acid 50 mg, leucine 550 mg, resveratrol 50 mg
[10] = 24 hours, nicotinic acid 10 nM, leucine 0.5 mM, resveratrol 200 nM

SMILES: N=C(N)N [Guanidine]
no-effect threshold for stimulation of glucose utilization [1]: 0.1 to 1 µM

cutaneous vasodilation compared to 1500 mg nicotinic acid [3, 9]: lower
SMILES: O=C(O)c1cccnc1 [nicotinic acid]
decrease in aortic macrophage infiltration (CD68 positive area) ([2]; eight weeks, doses as E77): ~50% | decrease in atherosclerotic lesion size (lesion and lipid area) ([2]; eight weeks, nicotinic acid 1,000 mg/kg diet, leucine 24 g/kg diet, or leucine + nicotinic acid 50 mg/kg diet, vs western diet alone): ~50% | decrease in plasma cholesterol esters ([2]; four weeks, doses as E73): 28% | decrease in plasma triglycerides ([2]; four weeks, doses as E73): 32% | decrease in plasma total cholesterol ([2]; four weeks, western diet + nicotinic acid 1,000 mg/kg diet, leucine 24 g/kg diet, or leucine + nicotinic acid 50 or 250 mg/kg diet): 20% | cutaneous vasodilation compared to all other groups ([3]; nicotinic acid 1500 mg alone): significant higher cutaneous vasodilation | triglyceride, LDL, cholesterol and HDL levels compared to day 0 [3, 9]: similar, without statistically significant difference | triglyceride, LDL, cholesterol and HDL levels compared to day 0 ([3]; nicotinic acid 1500 mg alone): significantly lower triglyceride, LDL and cholesterol levels, and significantly higher HDL level | concentrations that alone exert no effect (dose-response study) (Sirt1): < 100 nM | increase in Sirt1 levels (Sirt1; [10]): did not have a significant effect | plasma insulin and HOMAIR index ([4]; diet doses: metformin 1.5 g/kg alone or 0.25 g/kg in combinations, nicotinic acid 1000 mg/kg alone or 50 mg/kg in combinations, leucine 24 g/kg): high plasma insulin and HOMAIR index | atherosclerotic lesion size and aortic macrophage infiltration relative to western diet alone ([4]; doses as E112): decrease atherosclerotic lesion size and decrease in aortic macrophage infiltration | size of atherosclerotic plaque compared to day 0 [5]: similar, without statistically significant difference | effect on lifespan (Caenorhabditis elegans): no independent effect | concentrations that alone exert no effect (dose-response study) (AMPK): < 100 nM | AMPK activation (P-AMPK/AMPK) (AMPK; [10]): no significant effect | fasting blood glucose ([6]; 8 weeks, nicotinic acid 1000 mg/kg diet, or leucine 24 g/kg + metformin 0.5 g/kg + nicotinic acid 50 mg/kg diet, vs atherogenic diet): no change | plasma LDL cholesterol ([6]; Day 56, doses as E126): significantly lower | plasma cholesterol ([6]; Day 56, doses as E126): significantly lower | plasma triglycerides ([6]; Day 56, doses as E126): significantly lower | Oil Red O staining area in the heart and aorta ([6]; doses as E126): significantly less Oil Red O staining area | atherosclerosis (histological images of heart) ([6]; doses as E126): reduced | fasting plasma insulin ([6]; doses as E126): no change

SMILES: CC(C)=CCN=C(N)N [galegine]
concentration below which published literature shows no effect (C2C12 myotubes [7]): < 100 µM | increase in insulin-stimulated glucose utilization (C2C12 myotubes [8]; C2C12 myotubes, 5 nM insulin, galegine 5 μM, leucine 0.5 mM): no effect | concentrations with no independent effect on basal or insulin-stimulated glucose utilization (dose response curves) (C2C12 myotubes [8]; galegine alone): up to 500 μM

SMILES: c1cc(-c2cnn3cc(-c4ccc(OCCN5CCCCC5)cc4)cnc23)ccn1 [Compound C]
effect of the AMPK inhibitor on the Met-Leu increase in palmitate-induced fatty acid oxidation (3T3-L1 adipocytes): completely blocked this increase
